# Results: patent US7989634B2, “Melanocortin receptor agonists” (LG Life Sciences Ltd., priority 2003, dated 2011)
# pEC50, pIC50: −log10 of the molar value.
# What was measured:
# [1] = target: T1, human melanocortin receptor 4 (MC4R) (Homo sapiens, UniProt P32245); assay: Membrane fraction binding assay (125I-NDP-MSH competition); settings: binding affinity against MCR4
# T1 construct: expressed in transfected cells
# Protocol: The membrane fraction binding assay was used to identify competitive inhibitors of ^125I-NDP- -MSH binding to cloned human MCRs expressed in HEK cells.
# Cell lines expressing human melanocortin receptor 4 (MC4R) were grown in Φ150 mm culture dishes in DMEM (GIBCO-BRL) supplemented with 10% FBS, 200 ug/ml Geneticin (GIBCO-BRL), and antibiotics (penicillin and streptomycin) (GIBCO-BRL) in an atmosphere of 6% CO2 at 37° C. When the cells were fully grown, the cells were washed once with 10 ml of Ca^++, Mg^++ free DPBS. The cells were incubated with 8 ml of Ca^++, Mg^++ free DPBS for 15-30 min at 37° C. until the cells were easily detached by triturating with pipette. The cells were harvested into 50 ml of conical tubes, and spun at 1500 rpm for 5 min. The supernatant was discarded, and the cells were resuspended in 8 ml of Ca^++, Mg^++ free DPBS, and spun at 1500 rpm for 5 min. The supernatant was discarded, and pellets were resuspended in 3 ml of membrane preparation buffer (50 mM Tris, pH 7.2˜7.4, 4 ug/ml Leupeptin; 10 uM Phosphoramidon; 40 ug/ml Bacitracin; 5 ug/ml Aprotinin; 10 mM Pefabloc). The pellets were homogenized with dounce homogenizer (Bellco with type “B” glass pestle) using 10-12 strokes. The homogenate was centrifuged (Beckman XL-100K Ultracentrifuge, Rotor 45 Ti, 50 ml centrifuge tube) at 40,000 rpm (100,000×g) for 30 min at 4° C. The pellets were resuspended in 20 ml of membrane preparation buffer, and protein was determined by BCA assay kit (PIERCE). Aliquots were placed in tubes and stored at −80° C.
# Membrane fraction was diluted with membrane binding buffer to make final 600 ug/ml, and 50 ul of membrane fraction containing 30 ug of membrane protein was added onto each well of 96-well assay plate. 25 ul of test compounds or 20 uM unlabelled NDP- -MSH (to make the final concentration at 5 uM) diluted with membrane binding buffer was added onto each well of 96-well assay plate. […] The top was sealed, and the radioactivity was quantitated in a Packard Topcount Microplate Scintillation Counter. […]
# [2] = target: T1, human melanocortin receptor 4 (MC4R); assay: Luciferase functional assay; type: cell-based; settings: agonistic efficacy against MCR4; functional assay not specified (luciferase or cAMP)
# Protocol: Cell lines expressing human melanocortin receptor 4 (MC4R) were dissociated from tissue culture dishes by rinsing with Ca^++, Mg^++ free DPBS, treated with 1× Trypsin/EDTA solution for 1 min at 37° C., and resuspended with DMEM (GIBCO-BRL) supplemented with 10% FBS. The cells were counted and diluted with DMEM supplemented with 10% FBS and 200 ug/ml of Geneticin to 5×10^5 cells/ml. 90 ul of cell suspension was plated onto each well of 96-well black and clear bottom culture plates (Costar). After the incubation for 24 h in the atmosphere of 6% CO2 at 37° C., 10 ul of NDP- -MSH and test compounds diluted in DMSO were added to each well. The final DMSO concentration was 1%. After 4 h of incubation in the atmosphere of 6% CO2 at 37° C., 50 ul of Bright-Glo (Promega) was added to each well. Luciferase activity was measured by using L-Max luminometer (Molecular Device). The amount of luciferase activity induced by treatment with NDP- -MSH was defined as 100% to obtain the relative efficacy of test compounds. The EC0.5 MSH was defined as the concentration of test compounds that results in half maximal activity of NDP- -MSH. The EC50 was defined as the concentration of test compound that results in half maximal activity of its own.
# T1 sequence (P32245 whole entry): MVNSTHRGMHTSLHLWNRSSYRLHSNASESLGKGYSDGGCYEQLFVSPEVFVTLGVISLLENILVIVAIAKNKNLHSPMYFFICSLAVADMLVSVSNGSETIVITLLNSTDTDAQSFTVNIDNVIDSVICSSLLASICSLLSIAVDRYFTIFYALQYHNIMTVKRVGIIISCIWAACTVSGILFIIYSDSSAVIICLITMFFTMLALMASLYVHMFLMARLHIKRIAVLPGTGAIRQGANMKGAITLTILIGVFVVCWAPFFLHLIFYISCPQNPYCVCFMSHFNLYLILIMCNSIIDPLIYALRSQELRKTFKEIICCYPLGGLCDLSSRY
pIC50 [1],pEC50 [2],SMILES
6.30 to 7.00,6.30 to 8.30,CC(C)C(=O)N(C1CCCCC1)[C@H]1CCN(C(=O)[C@H](N)Cc2ccc(Cl)cc2)C1 [Example 1]
6.30 to 7.00,6.30 to 8.30,CC(C)C(=O)N(C1CCCCC1)[C@H]1CCN(C(=O)[C@@H](Cc2ccc(Cl)cc2)NC(=O)[C@H]2CCCN2)C1 [Example 2]
6.30 to 7.00,6.30 to 8.30,"CC(C)C(=O)N(C1CCCCC1)[C@H]1CCN(NC(=O)[C@@H](Cc2ccc(Cl)cc2)NC[C@H]2CCCN2)C1 [Example 3, (2R)-2-{[(2R)-pyrrolidine-2-yl]methyl}amino-N-{(3S)-3-[cyclohexyl(isobutyryl)amino]pyrrolidine-1-yl}-3-(4-chlorophenyl)propionamide 2TFA]"
